Source: patent US5846525A, “Protected biopolymers for oral administration and methods of using same” (Trega Biosciences, Inc., priority 1995, dated 1998)
Values joined by “and” are separate entries in the source; they are usually repeats but may differ in a detail not shown here. Identical values can stand only once.

Experiments:
[1] = Binding of CRA-1 to Amberlite IRP-69 cation exchange resin (HPLC of filtrate); type: physicochemical
Experimental: CRA-1, which has the amino acid sequence Ac-Nle-Gln-His-(D)Phe-Arg-(D)Trp-Gly-NH2, was prepared as described in U.S. Pat. No. 5,420,109, where it is referred to as "EX-2." A 1 mg/ml solution of peptide CRA-1 was prepared by dissolving 19.7 mg CRA-1 in 19.7 ml PBS. Ten mg Amberlite® IRP-69 ("IRP-69") (Rohm and Haas) was added to 5 ml CRA-1 solution (5 mg CRA-1) to achieve a CRA-1:IRP-69 ratio of 1:2. The mixture was adjusted to pH 6.0 and stirred for 2 hr. The suspension then was filtered and the filtrate was analyzed by HPLC (see Example II.A) to determine the total amount of CRA-1 bound to IRP-69. Binding also was performed using CRA-1:IRP-69 ratios of 1:20 and 1:200.

[2] = Binding of CRA-1 to Amberlite IRP-64 cation exchange resin (HPLC of filtrate); type: physicochemical
Experimental: A 1 mg/ml CRA-1 solution was prepared by dissolving 42.5 mg CRA-1 in 42.5 ml PBS. Fifty mg Amberlite® IRP-64 ("IRP-64") (Rohm and Haas) was added to 5 ml CRA-1 solution (5 mg CRA-1) to achieve a peptide:resin ratio of 1:10. The mixture was adjusted to pH 6.0 and stirred for 1 hr. The suspension was filtered and the filtrate was analyzed by HPLC (see Example II.A) to determine the total amount of CRA-1 bound to IRP-64. Binding also was performed using CRA-1: IRP-64 ratios of 1:1, 1:2 and 1:20.

[3] = test system: T1, trypsin; experiment: Stability of peptide-ion exchange resin complex to enzymatic degradation by trypsin; type: in vitro ADME; details: isolated enzyme trypsin, pH 7, unbound control, read-out: CRA-1 remaining
T1 construct: gene PRSS1
Experimental: (§1) Fifty mg or 100 mg of the complex was suspended in 5 ml of PBS (pH 7.0) containing either 1 mg/ml trypsin or 1 mg/ml chymotrypsin. The suspensions were rotated at 200 rpm in an incubator at 37° C. for 2 hr. Following incubation, the suspension was vacuum-filtered and the filtrate was analyzed by HPLC to determine the amount of CRA-1 bound to the IRP-64. […] After 1 hr, the suspension was vacuum-[…] ion exchange resin was washed and filtered a second time with 50 ml 2M KCl. The filtrate and wash were analyzed by HPLC to determine the amount of drug recovered from the ion exchange resin.

[4] = target: T2, trypsin (Bos taurus, UniProt P00760); experiment: as above; type: in vitro ADME; details: unbound control
T2 construct: gene PRSS1
T2 sequence (P00760 24-246): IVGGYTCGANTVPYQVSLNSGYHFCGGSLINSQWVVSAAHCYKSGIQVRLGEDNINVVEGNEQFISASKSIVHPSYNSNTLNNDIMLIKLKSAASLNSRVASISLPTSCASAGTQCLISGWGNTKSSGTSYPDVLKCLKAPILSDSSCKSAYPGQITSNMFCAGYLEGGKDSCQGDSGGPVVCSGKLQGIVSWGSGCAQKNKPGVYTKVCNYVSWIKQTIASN
Experimental: as §1

[5] = target: T2, trypsin; experiment: Susceptibility of free peptide to enzymatic degradation by trypsin; type: in vitro ADME; details: 37° C.
Experimental: (§2) Phosphate buffered saline (PBS) solutions were prepared and adjusted to pH 5.0, 7.0 or 8.0. CRA-1 was dissolved into each of the PBS solutions to a final concentration of 3 mg/ml. Samples of 3 mg/ml trypsin and 3 mg/ml chymotrypsin also were prepared in PBS at pH 5.0, 7.0 or 8.0.
(§3) To examine the susceptibility of CRA-1 to trypsin and chymotrypsin, 1 ml CRA-1 solution at pH 5.0 was mixed with 1 ml trypsin solution at pH 5.0 and 1 ml PBS (pH 5.0) to obtain a final concentration of 1 mg/ml CRA-1 and 1 mg/ml trypsin. Similar assay samples were prepared to examine the stability of CPA-1 in trypsin at pH 7.0 or pH 8.0 and in chymotrypsin at pH 5.0, 7.0 or 8.0. As a control, an assay sample was prepared without trypsin or chymotrypsin.
(§4) Immediately upon preparing an assay sample, 100 μl of the incubation mixture was removed and the reaction was terminated by adding 100 μl of a Stop solution (90% acetonitrile containing 0.1% trifluoroacetic acid). These samples were analyzed by HPLC to determine the amount of CRA-1 present in each sample at the initiation of the reaction.
(§5) The remainder of each assay sample was incubated in an oven at 37° C. At selected times after beginning the incubation, a 100 μl aliquot was withdrawn, the reaction was terminated as described above. The samples were analyzed by HPLC to determine the amount of intact CRA-1.

[6] = target: T3, chymotrypsin (Bos taurus, UniProt P00766); experiment: Susceptibility of free peptide to enzymatic degradation by chymotrypsin; type: in vitro ADME; details: 37° C.
Experimental: as §2, §3, §4, §5

[7] = target: T3, chymotrypsin; experiment: Stability of peptide-ion exchange resin complex to enzymatic degradation by chymotrypsin; type: in vitro ADME; details: unbound control
Experimental: as §1

[8] = test system: chymotrypsin; experiment: as above; type: in vitro ADME; details: isolated enzyme chymotrypsin, pH 7, unbound control, read-out: CRA-1 remaining
Experimental: as §1

## CCCC[C@H](NC(C)=O)C(=O)N[C@@H](CCC(N)=O)C(=O)N[C@@H](Cc1c[nH]cn1)C(=O)N[C@H](Cc1ccccc1)C(=O)N[C@@H](CCCNC(=N)N)C(=O)N[C@H](Cc1c[nH]c2ccccc12)C(=O)NCC(N)=O [CRA-1, Ac-Nle-Gln-His-(D)Phe-Arg-(D)Trp-Gly-NH2]
[1]; IRP-69, peptide:resin ratio 1:2, PBS pH 6.0, stirred 2 hr
  CRA-1 bound to ion exchange resin: 66.91%
[1]; IRP-69, peptide:resin ratio 1:20, PBS pH 6.0, stirred 2 hr
  CRA-1 bound to ion exchange resin: 99.63%
[1]; IRP-69, peptide:resin ratio 1:200, PBS pH 6.0, stirred 2 hr
  CRA-1 bound to ion exchange resin: 99.5% and 99.52%
[2]; IRP-64, peptide:resin ratio 1:1, PBS pH 6.0, stirred 1 hr
  CRA-1 bound to ion exchange resin: 10.48%
[2]; IRP-64, peptide:resin ratio 1:2, PBS pH 6.0, stirred 1 hr
  CRA-1 bound to ion exchange resin: 20.08%
[2]; IRP-64, peptide:resin ratio 1:10, PBS pH 6.0, stirred 1 hr
  CRA-1 bound to ion exchange resin: 97.55%
[2]; IRP-64, peptide:resin ratio 1:20, PBS pH 6.0, stirred 1 hr
  CRA-1 bound to ion exchange resin: 98.97%
[3]
  remaining at 2 h: 2.96%
[4]
  CRA-1 remaining: almost completely degraded
[5]; pH 5.0, 1 mg/ml CRA-1, 1 mg/ml trypsin
  stability in the presence of trypsin: stable
[5]; pH 7.0 or 8.0, 1 mg/ml CRA-1, 1 mg/ml trypsin
  half-life of degradation by trypsin: 20 to 30 min
[6]; pH 5.0, 1 mg/ml CRA-1, 1 mg/ml chymotrypsin
  stability in the presence of chymotrypsin: stable
[6]; pH 7.0 or 8.0, 1 mg/ml CRA-1, 1 mg/ml chymotrypsin
  half-life of degradation by chymotrypsin: 20 to 30 min
[7]
  CRA-1 remaining: almost completely degraded
[8]
  remaining at 2 h: 5.47%
